Laboratory results as given in patent publication US10130611B2, “Use of benzo-heterocycle derivatives for preventing and treating cancer or for inhibiting cancer metastasis” (MEDICINAL BIOCONVERGENCE RESEARCH CENTER, priority 2009, dated 2018).

Columns and labels:
KRS-AIMP2 = molecular target: T1, KRS-AIMP2 (Homo sapiens, UniProt Q15046); experiment: Yeast two hybrid specificity test, LexA-KRS/B42-AIMP2 pair; format: cell-based; conditions: compound at 50 μg/ml, DMSO control 1.3204
T1 construct: expressed in transfected cells; host or cells: yeast (EGY/SH is stated for the KRS/LR pair)
T1 sequence (Q15046 whole entry): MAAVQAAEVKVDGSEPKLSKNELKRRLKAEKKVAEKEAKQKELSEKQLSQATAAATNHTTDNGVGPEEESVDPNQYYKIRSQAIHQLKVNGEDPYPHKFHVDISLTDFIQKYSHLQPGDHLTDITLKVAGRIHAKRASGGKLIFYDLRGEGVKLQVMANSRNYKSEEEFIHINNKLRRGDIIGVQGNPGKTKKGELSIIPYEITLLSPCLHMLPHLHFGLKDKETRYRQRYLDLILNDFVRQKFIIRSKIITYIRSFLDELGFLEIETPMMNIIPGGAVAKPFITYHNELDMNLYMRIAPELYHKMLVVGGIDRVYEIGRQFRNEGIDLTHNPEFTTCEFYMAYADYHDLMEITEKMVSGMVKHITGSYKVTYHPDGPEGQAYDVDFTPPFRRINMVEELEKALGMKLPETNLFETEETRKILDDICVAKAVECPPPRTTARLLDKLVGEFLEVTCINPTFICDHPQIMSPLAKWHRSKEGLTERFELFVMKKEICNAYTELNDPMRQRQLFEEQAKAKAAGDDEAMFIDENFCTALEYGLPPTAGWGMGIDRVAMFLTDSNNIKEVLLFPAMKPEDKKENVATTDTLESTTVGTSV
Method: (§1) On the compound of the present invention obtained by screening a library of compounds, the extent of inhibition on the interaction between KRS and laminin receptor (67LR) was determined by a yeast two hybrid assay, as described below. KRS, LR, AIMP2, AIMP3 and MRS were cloned at LexA vector (clontech) and B42 vector (clontech) each so as to produce required vectors. From among the vectors, LexA-KRS vector and B42-LR vector were co-transformed into yeast EGY/SH cells, and then the yeast cells were diluted to an absorbance (540 nm wavelength) of 0.2 in galactose medium not containing uracil (Ura), histidine (His), tryptophane (Trp) and leucine (Leu), and placed in an amount of 200 u in a 96 well plate. 1 μl of each compound at a concentration of 10 mg/ml was placed in each well, incubated for 6 days, and the absorbance was measured at 540 nm. […] The inhibitory specificity of the selected compound was tested by using two different interaction pairs such as LexA-KRS/B42-AIMP2 and LexA-MRS/B42-AIMP3. […]

MRS-AIMP3 = molecular target: T2, MRS-AIMP3 (Homo sapiens, UniProt P56192); experiment: Yeast two hybrid specificity test, LexA-MRS/B42-AIMP3 pair; format: cell-based; conditions: compound at 50 μg/ml, DMSO control 1.4732
T2 construct: expressed in transfected cells; host or cells: yeast
T2 sequence (P56192 1-900): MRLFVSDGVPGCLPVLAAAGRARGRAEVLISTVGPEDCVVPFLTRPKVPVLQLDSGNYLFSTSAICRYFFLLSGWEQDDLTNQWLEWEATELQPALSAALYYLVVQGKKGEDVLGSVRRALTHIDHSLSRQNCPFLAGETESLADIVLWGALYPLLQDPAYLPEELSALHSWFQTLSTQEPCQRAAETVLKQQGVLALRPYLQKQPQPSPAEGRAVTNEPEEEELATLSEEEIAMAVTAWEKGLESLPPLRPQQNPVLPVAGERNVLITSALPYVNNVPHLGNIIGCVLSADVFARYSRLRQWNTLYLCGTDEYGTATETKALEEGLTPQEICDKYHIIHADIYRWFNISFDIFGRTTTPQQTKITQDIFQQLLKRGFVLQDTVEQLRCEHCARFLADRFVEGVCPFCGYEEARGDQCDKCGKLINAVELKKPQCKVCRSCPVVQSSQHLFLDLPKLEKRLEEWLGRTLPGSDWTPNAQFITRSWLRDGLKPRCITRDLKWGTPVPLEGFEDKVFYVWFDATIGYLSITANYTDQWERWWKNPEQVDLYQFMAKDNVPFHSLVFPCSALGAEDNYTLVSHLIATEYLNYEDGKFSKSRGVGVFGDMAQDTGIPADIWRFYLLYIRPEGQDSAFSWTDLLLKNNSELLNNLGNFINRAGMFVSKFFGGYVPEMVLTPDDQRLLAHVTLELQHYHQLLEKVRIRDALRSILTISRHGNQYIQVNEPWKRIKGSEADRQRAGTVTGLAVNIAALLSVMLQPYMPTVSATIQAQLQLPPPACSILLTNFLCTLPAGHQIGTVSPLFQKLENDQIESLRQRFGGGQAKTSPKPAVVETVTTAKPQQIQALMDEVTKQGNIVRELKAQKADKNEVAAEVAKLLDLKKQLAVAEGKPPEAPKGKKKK
Method: as §1

A549 cells = experiment: Cytotoxicity analysis (EZ-cytox); format: cell-based, human; conditions: KL1 at indicated concentrations, 24 hours
Method: 10^4 A549 cells were placed in a 96-well plate, and treated with the compound represented by Formula 15, at indicated concentrations for 24 hours. Then, EZ-cytox (Daeil Lab, Korea) compound was added in an amount of 10 μl to each well in accordance with the manufacturer's instruction, followed by cultivation for 2 hours. A microplate reader was used to measure the absorbance at 420 nm.

- KRS-AIMP2 (yeast growth, OD level) (KRS-AIMP2): 0.9497
- MRS-AIMP3 (yeast growth, OD level) (MRS-AIMP3): 1.2443
SMILES: CCC(C(=O)O)n1/c(=N/C(=O)c2ccc(C)cc2)sc2ccccc21 (stereo not drawn) [Compound of formula 15, 2-[2-(4-Methyl-benzoylimino)-benzothiazol-3-yl]-butyric acid]
- viability (A549 cells): not influenced
